Measured values taken from US20240374587A1, “MEDICINE FOR PREVENTION AND TREATMENT OF DISEASES LINKED TO ANTI-OBESITY ACTIVITY” (Shionogi & Co., Ltd., priority 2021, published 2024).

Key:
C57BL/6j mice (DIO mice) = experiment: Anti-obesity effect test in DIO mice (body weight, food consumption); type: in vivo; design: concentration or dose not given beside the values; conditions: for Rate of decrease in body weight relative to control group: at final administration (Day 0 to Day 35, once a day)
Procedure: The anti-obesity effect of the compound and/or agent according to the present invention was examined by using C57BL/6j mice (DIO mice) provided with a high-fat diet (TestDiet; 58Y1).
Five-week-old male C57BL/6j mice (CLEA Japan. Inc.) were purchased, and grown with feeding of a high-fat diet under 12-hour light-dark cycles for 4 weeks to produce DIO mice. A medium (0.5% HPMC and physiological saline) was administered once a day from 3 weeks before administration of the compound. Randomization was performed for grouping (n=9 to 10) on the basis of body weight and change in food consumption during the period of administration for conditioning. From Day 0 to Day 35, gavage of vehicle (0.5% HPMC and physiological saline) (hereinafter, Control group), gavage of Compound (A) according to the present invention (hereinafter, (A)-administration group), subcutaneous administration of GLP-1 formulation (liraglutide or semaglutide) as Compound (B) according to the present invention (hereinafter, (B)-administration group), or both (hereinafter, the combined administration group) were performed once a day. The GLP-1 formulation was formulated in an increasing dose, and liraglutide and semaglutide were administered at 4 to 20 μg/kg and:3 to 15 μg/kg, respectively, once a day. During the administration period, daily body weight measurement and food consumption measurement once a week were performed.

human MGAT2 = human MGAT2 (Homo sapiens (Human), UniProt Q3SYC2); experiment: Measurement of human MGAT2 inhibitory activity; type: biochemical; conditions: concentration exhibiting 50% enzyme inhibition
Chain of human MGAT2 (Q3SYC2 whole entry): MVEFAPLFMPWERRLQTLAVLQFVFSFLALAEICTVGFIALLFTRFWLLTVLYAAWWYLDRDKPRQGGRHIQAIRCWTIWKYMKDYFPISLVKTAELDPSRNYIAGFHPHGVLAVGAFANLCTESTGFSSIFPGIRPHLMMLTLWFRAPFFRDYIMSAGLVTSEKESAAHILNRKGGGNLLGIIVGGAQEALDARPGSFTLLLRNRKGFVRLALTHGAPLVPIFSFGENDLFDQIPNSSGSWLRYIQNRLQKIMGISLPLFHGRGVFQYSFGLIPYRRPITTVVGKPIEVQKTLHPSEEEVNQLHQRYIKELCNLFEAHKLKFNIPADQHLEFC
Procedure: Solutions of the compounds of the present invention in DMSO were each aliquoted into 0.2·μL portions in a 384-well polystyrene microplate produced by Corning Incorporated, and 5 μL of an enzyme solution prepared with an assay buffer (100 mmol/L phosphate buffer (pH 7.4) containing 2 mmol/L DTT) and 5 μL of a substrate solution (100 mmol/L phosphate buffer (pH 7.4), 30 μmol/L 2-Oleoylglycerol, 10 μmol/L Oleoyl-CoA) were added thereto, and the resultant was stirred and centrifuged, and incubated in a moist chamber at room temperature for 1 hour. After enzymatic reaction, 50 μL of a quenching solution (containing 0.2 μmol/L Diolein-d5, 0.4% formic acid, and 50% isopropanol) containing Internal Standard (IS) was added to terminate the reaction, and the resultant was sealed in a plate produced by Shimadzu GLC Ltd., and then stirred and centrifuged, and measurement was performed by using an electrospray ionization method with a RapidFire360 and Agilent 6550 Q-TOF mass spectrometer. Diolein as a reaction product (P) of 2-Oleoylglycerol as the substrate and an ammonium adduct ion of the IS were detected, and the peak intensity ratio, P/IS, was calculated from the peak heights to evaluate the inhibitory activity. Inhibitory activities with/without addition of enzyme were defined as Control (+)/Control (−), respectively, and the respective % inhibitions were defined as 0% inhibition and 100% inhibition. The inhibitory activity was calculated from the formula below with TIBCO Spotfire (produced by TIBCO Software Inc.) with the peak intensity ratio, P/IS, at the time of addition of the compound of the present invention being as Sample: […]

- IC50 (human MGAT2): 2.91 nM
SMILES: CS(=O)(=O)CC(=O)Nc1c2c(nn1CCCOC(F)(F)F)C[C@@]1(CCOc3cc(OCC(F)(F)F)ccc31)NC2=O [II-121]
- Rate of decrease in food consumption relative to control group (C57BL/6j mice (DIO mice); 1st week of administration, liraglutide study): 18.9%
- Rate of decrease in food consumption relative to control group (C57BL/6j mice (DIO mice); 1st week of administration, semaglutide study): 15.7%
- Rate of decrease in food consumption relative to control group (C57BL/6j mice (DIO mice); 2nd week of administration, liraglutide study): 12.7%
- Rate of decrease in food consumption relative to control group (C57BL/6j mice (DIO mice); 2nd week of administration, semaglutide study): 10.5%
- Rate of decrease in food consumption relative to control group (C57BL/6j mice (DIO mice); 3rd week of administration, liraglutide study): 9.9%
- Rate of decrease in food consumption relative to control group (C57BL/6j mice (DIO mice); 3rd week of administration, semaglutide study): 7.3%
- Rate of decrease in food consumption relative to control group (C57BL/6j mice (DIO mice); 4th week of administration, liraglutide study): 8.5%
- Rate of decrease in food consumption relative to control group (C57BL/6j mice (DIO mice); 4th week of administration, semaglutide study): 3.9%
- Rate of decrease in food consumption relative to control group (C57BL/6j mice (DIO mice); 5th week of administration, liraglutide study): 7.5%
- Rate of decrease in food consumption relative to control group (C57BL/6j mice (DIO mice); 5th week of administration, semaglutide study): 1.6%
- Rate of decrease in body weight relative to control group (C57BL/6j mice (DIO mice); liraglutide study (FIG. 1)): 10.0%
- Rate of decrease in body weight relative to control group (C57BL/6j mice (DIO mice); semaglutide study (FIG. 2)): 5.5%
